Laboratory results from patent US11229636B2, “Substituted tetrahydroquinolinone compounds as ROR gamma modulators” (Aurigene Discovery Technologies Limited, priority 2015, dated 2022).

Columns and labels:
[1] = biological target: ROR gamma ligand binding domain (Homo sapiens (Human), UniProt P51449); assay: ROR gamma luciferase reporter assay (GAL4-ROR gamma LBD, HEK293 cells); type: cell-based; conditions: 48 hours treatment, read-out: RORγ luciferase Reporter assay: IC50 (nM) (in range)
Summary of the method: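 HEK293 cells were co-transfected with a GAL4 DBD–RORγ LBD fusion (hRluc vector) and a 9xGAL4 UAS luc2P reporter, then treated with compounds for 48 h. Bright-Glo luminescence was used to derive potency.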

[2] = biological target: RORγ LBD (Homo sapiens (Human), UniProt P51449); assay: ROR gamma radio-ligand binding assay (3H 25-Hydroxycholesterol competitive displacement, dextran charcoal method); conditions: for RORγ ligand binding assay: % inhibition @1 μM / inhibition at 1 µM: 1 μM compound; for RORγ ligand binding assay: % inhibition @ 10 μM / inhibition at 10 µM: 10 μM compound; for IC50: in range
RORγ LBD, sequence (P51449 268-518): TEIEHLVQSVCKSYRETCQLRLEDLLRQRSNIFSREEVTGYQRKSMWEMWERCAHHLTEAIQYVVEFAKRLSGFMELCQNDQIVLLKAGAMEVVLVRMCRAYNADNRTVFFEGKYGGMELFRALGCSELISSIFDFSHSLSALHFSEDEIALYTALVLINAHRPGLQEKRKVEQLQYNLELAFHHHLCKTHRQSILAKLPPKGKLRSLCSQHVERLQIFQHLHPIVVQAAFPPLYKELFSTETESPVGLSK
Procedure: Gene corresponding to the ligand binding domain of RORγ (247-497 amino acids) was sub-cloned into pGEX4T1 vector. Transformants of E. coli BL21 (DE3) containing pGEX4T1-RORγ (247-497) were grown to an OD of 0.8 at 37° C. and induced with 0.5 mM isopropyl-β-D-thiogalactopyranoside (IPTG) for 18 hours at 18° C. Cells were harvested and resuspended in 20 mM Tris-HCl (pH 8.5), 0.3 M NaCl, 10% Glycerol, 2 mM β-Me (β-Mercaptoethanol), 2 mM CHAPS, protease inhibitors, 0.6 mM PMSF and Lysozyme. Supernatant of lysate was passed through glutathione sepharose 4B affinity beads (GE health care) pre-equilibrated with 20 mM Tris-HCl (pH 8.5), 0.3 M NaCl, 10% Glycerol, 2 mM β-Me. RORγ was eluted using a gradient of reduced glutathione (3-20 mM). Fractions containing RORγ protein were pooled, concentrated and passed through Superdex 75 gel filtration (GE health care) column equilibrated with 20 mM Na-phosphate pH 8.0, 0.2 M NaCl, 10% glycerol. The peak fractions from gel filtration column were pooled and stored at −80° C. for Binding assay.
ROR gamma radioligand binding was performed using ^3H 25-Hydroxycholesterol in a competitive displacement assay using dextran charcoal method. Using 5 nM ^3H 25-Hydroxycholesterol with 300 ng RORγ LBD (in house expressed in E. coli) along with the compound were incubated in the binding buffer (50 mM HEPES, pH 7.5, 150 mM NaCl, 0.01% BSA and 5 mM MgCl2) for 30 min at room temperature. Then dextran-charcoal mixture (0.5% charcoal: 0.05% dextran) was used for separation and the supernatant was read on the Perkin Elmer Trilux Microbeta counter. Dose response curves were generated for 10 compound concentrations using GraphPad Prism software Version 5 (San Diego, Calif., USA) using non-linear regression curve fit for sigmoidal dose response (variable slope).

ROR gamma ligand binding domain, sequence (P51449 269-508): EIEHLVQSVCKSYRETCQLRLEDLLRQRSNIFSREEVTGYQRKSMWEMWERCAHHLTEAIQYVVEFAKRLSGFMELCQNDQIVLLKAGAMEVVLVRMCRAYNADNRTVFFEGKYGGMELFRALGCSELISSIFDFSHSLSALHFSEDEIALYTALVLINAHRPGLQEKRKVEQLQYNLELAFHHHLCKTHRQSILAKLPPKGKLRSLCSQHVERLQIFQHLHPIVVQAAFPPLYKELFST

Row | SMILES | IC50 [1] [nM] | RORγ ligand binding assay: % inhibition @1 μM [2] [%] | RORγ ligand binding assay: % inhibition @ 10 μM [2] [%] | IC50 [2] [nM] | inhibition at 1 µM [2] [%] | inhibition at 10 µM [2] [%]
1 | CCS(=O)(=O)c1ccc(CC(=O)Nc2ccc3c(n2)CCC(C)(c2nccn4cc(C)nc24)C3=O)cc1 (single isomer, unassigned) [Compound-105, 2-(4-(ethylsulfonyl)phenyl)-N-(6-methyl-6-(2-methylimidazo[1,2-a]pyrazin-8-yl)-5-oxo-5,6,7,8-tetrahydroquinolin-2-yl)acetamide] | < 100 | 100 | 97 | < 150 |  | 
2 | CCS(=O)(=O)c1ccc(CC(=O)Nc2ccc3c(n2)CCC(C)(c2cc(C)nc(C)n2)C3=O)cc1 (single isomer, unassigned) [compound 103, N-(6-(2,6-dimethylpyrimidin-4-yl)-6-methyl-5-oxo-5,6,7,8-tetrahydroquinolin-2-yl)-2-(4-(ethylsulfonyl)phenyl)acetamide] | > 500 | 26 | 0 |  |  | 
3 | CCS(=O)(=O)c1ccc(CC(=O)Nc2ccc3c(n2)CCC(C)(c2cc(C)nc(C)n2)C3=O)cc1 (single isomer, unassigned) [compound 104, N-(6-(2,6-dimethylpyrimidin-4-yl)-6-methyl-5-oxo-5,6,7,8-tetrahydroquinolin-2-yl)-2-(4-(ethylsulfonyl)phenyl)acetamide] | 100 to 500 | 94 | 88 | < 150 |  | 
4 | CCS(=O)(=O)c1ccc(CC(=O)Nc2ccc3c(n2)CCC(C)(c2nccn4cc(C)nc24)C3=O)cc1 (single isomer, unassigned) [compound 106, 2-(4-(ethylsulfonyl)phenyl)-N-(6-methyl-6-(2-methylimidazo[1,2-a]pyrazin-8-yl)-5-oxo-5,6,7,8-tetrahydroquinolin-2-yl)acetamide] | > 500 | 70 | 1 |  |  | 
5 | CCS(=O)(=O)c1ccc(CC(=O)Nc2cc(C)c3c(n2)CCC(C)(c2cc(C)nc(C)n2)C3=O)cc1 (single isomer, unassigned) [compound 107, N-(6-(2,6-dimethylpyrimidin-4-yl)-4,6-dimethyl-5-oxo-5,6,7,8-tetrahydroquinolin-2-yl)-2-(4-(ethylsulfonyl)phenyl)acetamide] | 100 to 500 |  | 90 | < 150 | 91 | 
6 | CCS(=O)(=O)c1ccc(CC(=O)Nc2cc(C)c3c(n2)CCC(C)(c2cc(C)nc(C)n2)C3=O)cc1 (single isomer, unassigned) [compound 108, N-(6-(2,6-dimethylpyrimidin-4-yl)-4,6-dimethyl-5-oxo-5,6,7,8-tetrahydroquinolin-2-yl)-2-(4-(ethylsulfonyl)phenyl)acetamide] | > 500 | 78 | 28 | > 300 |  | 
7 | CCS(=O)(=O)c1ccc(CC(=O)Nc2cc(C)c3c(n2)CCC(C)(c2ccc(OC)nn2)C3=O)cc1 (single isomer, unassigned) [compound 109, 2-(4-(ethylsulfonyl)phenyl)-N-(6-(6-methoxypyridazin-3-yl)-4,6-dimethyl-5-oxo-5,6,7,8-tetrahydroquinolin-2-yl)acetamide] | > 500 |  | 36 |  | 91 | 
8 | CCS(=O)(=O)c1ccc(CC(=O)Nc2cc(C)c3c(n2)CCC(C)(c2ccc(OC)nn2)C3=O)cc1 (single isomer, unassigned) [compound 110, 2-(4-(ethylsulfonyl)phenyl)-N-(6-(6-methoxypyridazin-3-yl)-4,6-dimethyl-5-oxo-5,6,7,8-tetrahydroquinolin-2-yl)acetamide] | < 100 | 100 | 81 |  |  | 
9 | CCS(=O)(=O)c1ccc(CC(=O)Nc2ccc3c(n2)CCC(C)(c2ncc(OC)cn2)C3=O)cc1 (single isomer, unassigned) [compound 111, 2-(4-(ethylsulfonyl)phenyl)-N-(6-(5-methoxypyrimidin-2-yl)-6-methyl-5-oxo-5,6,7,8-tetrahydroquinolin-2-yl)acetamide] | > 500 | 62 | 19 | > 300 |  | 
10 | CCS(=O)(=O)c1ccc(CC(=O)Nc2ccc3c(n2)CCC(C)(c2ncc(OC)cn2)C3=O)cc1 (single isomer, unassigned) [compound 112, 2-(4-(ethylsulfonyl)phenyl)-N-(6-(5-methoxypyrimidin-2-yl)-6-methyl-5-oxo-5,6,7,8-tetrahydroquinolin-2-yl)acetamide] | 100 to 500 | 100 | 73 | < 150 |  | 
11 | CCS(=O)(=O)c1ccc(CC(=O)Nc2ccc3c(n2)CCC(C)(c2ccc(OC)nc2)C3=O)cc1 (centres unmarked) [Compound 2, 2-(4-(ethylsulfonyl)phenyl)-N-(6-(6-methoxypyridin-3-yl)-6-methyl-5-oxo-5,6,7,8-tetrahydroquinolin-2-yl)acetamide] | 100 to 500 |  |  | < 150 | 84 | 89
12 | CCS(=O)(=O)c1ccc(CC(=O)Nc2ccc3c(n2)CCC(C)(c2nccn4ccnc24)C3=O)cc1 (centres unmarked) [Compound 6, 2-(4-(ethylsulfonyl)phenyl)-N-(6-(imidazo[1,2-a]pyrazin-8-yl)-6-methyl-5-oxo-5,6,7,8-tetrahydroquinolin-2-yl)acetamide] | 100 to 500 |  |  | 150 to 300 | 72 | 96
13 | CCS(=O)(=O)c1ccc(CC(=O)Nc2ccc3c(n2)CCC(C)(c2cc(C)nc(C)n2)C3=O)cc1 (centres unmarked) [Compound 7, N-(6-(2,6-dimethylpyrimidin-4-yl)-6-methyl-5-oxo-5,6,7,8-tetrahydroquinolin-2-yl)-2-(4-(ethylsulfonyl)phenyl)acetamide] | 100 to 500 |  |  | < 150 | 91 | 100
14 | CCS(=O)(=O)c1ccc(CC(=O)Nc2ccc3c(n2)CCC(C)(c2nccn4cc(C)nc24)C3=O)cc1 (centres unmarked) [Compound 9, 2-(4-(ethylsulfonyl)phenyl)-N-(6-methyl-6-(2-methylimidazo[1,2-a]pyrazin-8-yl)-5-oxo-5,6,7,8-tetrahydroquinolin-2-yl)acetamide] | 100 to 500 |  |  | < 150 | 90 | 100
15 | CCS(=O)(=O)c1ccc(CC(=O)Nc2nc3c(cc2C)C(=O)C(C)(c2nccn4ccnc24)CC3)cc1 (centres unmarked) [Compound 11, 2-(4-(ethylsulfonyl)phenyl)-N-(6-(imidazo[1,2-a]pyrazin-8-yl)-3,6-dimethyl-5-oxo-5,6,7,8-tetrahydroquinolin-2-yl)acetamide] | > 500 |  |  |  | 25 | 71
16 | CCS(=O)(=O)c1ccc(CC(=O)Nc2ccc3c(n2)CCC(C)(c2ccc(OC)nn2)C3=O)cc1 (centres unmarked) [Compound 12, 2-(4-(ethylsulfonyl)phenyl)-N-(6-(6-methoxypyridazin-3-yl)-6-methyl-5-oxo-5,6,7,8-tetrahydroquinolin-2-yl)acetamide] | 100 to 500 |  |  | < 150 |  | 
17 | CCC1(c2nccn3ccnc23)CCc2nc(NC(=O)Cc3ccc(S(=O)(=O)CC)cc3)ccc2C1=O (centres unmarked) [Compound 14, N-(6-ethyl-6-(imidazo[1,2-a]pyrazin-8-yl)-5-oxo-5,6,7,8-tetrahydroquinolin-2-yl)-2-(4-(ethylsulfonyl)phenyl)acetamide] | > 500 |  |  |  | 0 | 26
18 | CCS(=O)(=O)c1ccc(CC(=O)Nc2ccc3c(n2)CCC(C)(c2nccn4cccc24)C3=O)cc1 (centres unmarked) [Compound 15, 2-(4-(ethylsulfonyl)phenyl)-N-(6-methyl-5-oxo-6-(pyrrolo[1,2-a]pyrazin-1-yl)-5,6,7,8-tetrahydroquinolin-2-yl)acetamide] | < 100 |  |  | < 150 | 95 | 92
19 | CCS(=O)(=O)c1ccc(CC(=O)Nc2ccc3c(n2)CCC(C)(c2nc(C)cn4ccnc24)C3=O)cc1 (centres unmarked) [Compound 16, 2-(4-(ethylsulfonyl)phenyl)-N-(6-methyl-6-(6-methylimidazo[1,2-a]pyrazin-8-yl)-5-oxo-5,6,7,8-tetrahydroquinolin-2-yl)acetamide] | < 100 |  |  | 150 to 300 | 86 | 93
